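Method: 48-hour compound exposure of cells in 96-well plates, five concentrations, linear interpolation of endpoints. At the GI50, growth is halved.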 Activity calls are given as the source filed them. Rule as the data show it: active = GI50 up to about 1.1 µM and inactive = higher.
Experiments:
Experiment in all cases: inhibition of tumour cell growth, NCI panel, 48 h
A549 = test system: A549
ACHN = test system: ACHN
CAKI-1 = test system: CAKI-1
HCT-15 = test system: HCT-15
MDA-MB-231 = test system: MDA-MB-231
NCI-H226 = test system: NCI-H226
NCI-H522 = test system: NCI-H522
OVCAR-3 = test system: OVCAR-3
SF-295 = test system: SF-295
SK-MEL-28 = test system: SK-MEL-28
SK-MEL-2 = test system: SK-MEL-2
SN12C = test system: SN12C
T47D = test system: T47D
TK-10 = test system: TK-10
UACC-257 = test system: UACC-257
UACC-62 = test system: UACC-62
UO-31 = test system: UO-31
MOLT-4 = test system: MOLT-4
HCC 2998 = test system: HCC 2998

N#Cc1c(NC(=O)CCC(=O)O)ccc2ccccc12
GI50 (A549): > 100 µM (inactive)
GI50 (ACHN): > 100 µM (inactive)
GI50 (CAKI-1): > 100 µM (inactive)
GI50 (HCT-15): > 100 µM
GI50 (MDA-MB-231): > 100 µM (inactive)
GI50 (NCI-H226): > 100 µM (inactive)
GI50 (NCI-H522): > 100 µM (inactive)
GI50 (OVCAR-3): > 100 µM (inactive)
GI50 (SF-295): > 100 µM (inactive)
GI50 (SK-MEL-28): > 100 µM (inactive)
GI50 (SK-MEL-2): > 100 µM (inactive)
GI50 (SN12C): > 100 µM (inactive)
GI50 (T47D): > 100 µM (inactive)
GI50 (TK-10): > 100 µM (inactive)
GI50 (UACC-257): > 100 µM (inactive)
GI50 (UACC-62): > 100 µM (inactive)
GI50 (UO-31): > 100 µM (inactive)

CN1CCc2nc(N)nc(-c3nc(N)nc4c3CN(C)CC4)c2C1
GI50 (A549): > 100 µM (inactive)
GI50 (ACHN): > 100 µM (inactive)
GI50 (CAKI-1): > 100 µM (inactive)
GI50 (HCT-15): > 100 µM
GI50 (MDA-MB-231): > 100 µM (inactive)
GI50 (MOLT-4): > 100 µM (inactive)
GI50 (NCI-H226): > 100 µM (inactive)
GI50 (NCI-H522): > 100 µM (inactive)
GI50 (OVCAR-3): > 100 µM (inactive)
GI50 (SF-295): > 100 µM (inactive)
GI50 (SK-MEL-28): > 100 µM (inactive)
GI50 (SK-MEL-2): > 100 µM (inactive)
GI50 (SN12C): > 100 µM (inactive)
GI50 (T47D): > 100 µM (inactive)
GI50 (TK-10): > 100 µM (inactive)
GI50 (UACC-257): > 100 µM (inactive)
GI50 (UACC-62): > 100 µM (inactive)
GI50 (UO-31): > 100 µM (inactive)

CC1=NN(c2cccc(Cl)c2)C2(C1=Cc1ccccc1)C(Cl)C(=O)N2c1nc2ccccc2s1 (stereo not drawn)
GI50 (ACHN): 16.7 µM (inactive)
GI50 (CAKI-1): 17.7 µM (inactive)
GI50 (HCC 2998): 17.3 µM (inactive)
GI50 (HCT-15): 15.9 µM
GI50 (MDA-MB-231): 18.4 µM (inactive)
GI50 (MOLT-4): 23.5 µM (inactive)
GI50 (NCI-H226): 23.8 µM (inactive)
GI50 (NCI-H522): 16.8 µM (inactive)
GI50 (OVCAR-3): 16.3 µM (inactive)
GI50 (SF-295): 20.2 µM (inactive)
GI50 (SK-MEL-28): 27.2 µM (inactive)
GI50 (SK-MEL-2): 17 µM (inactive)
GI50 (T47D): 18.5 µM (inactive)
GI50 (TK-10): 37.8 µM (inactive)
GI50 (UACC-257): 24 µM (inactive)
GI50 (UO-31): 16.3 µM (inactive)

Clc1cc2nc(C3CCCO3)[nH]c2cc1Cl (stereo not drawn)
GI50 (A549): 54.6 µM (inactive)
GI50 (ACHN): > 100 µM (inactive)
GI50 (HCC 2998): 76.4 µM (inactive)
GI50 (HCT-15): 31.6 µM
GI50 (MDA-MB-231): > 100 µM (inactive)
GI50 (MOLT-4): 52 µM (inactive)
GI50 (NCI-H226): > 100 µM (inactive)
GI50 (NCI-H522): 20.4 µM (inactive)
GI50 (OVCAR-3): 32.5 µM (inactive)
GI50 (SF-295): 57.1 µM (inactive)
GI50 (SK-MEL-28): 78 µM (inactive)
GI50 (SK-MEL-2): > 100 µM (inactive)
GI50 (SN12C): > 100 µM (inactive)
GI50 (T47D): 46.2 µM (inactive)
GI50 (TK-10): > 100 µM (inactive)
GI50 (UACC-257): > 100 µM (inactive)
GI50 (UACC-62): 45.8 µM (inactive)
GI50 (UO-31): 16.9 µM (inactive)

CSc1nc2c(=O)n(-c3ccccc3)c(=S)n(-c3ccccc3)c2s1
GI50 (A549): > 100 µM (inactive)
GI50 (ACHN): 45.4 µM (inactive)
GI50 (HCC 2998): > 100 µM (inactive)
GI50 (HCT-15): > 100 µM
GI50 (MDA-MB-231): 49.2 µM (inactive)
GI50 (MOLT-4): 63.2 µM (inactive)
GI50 (NCI-H226): 31.1 µM (inactive)
GI50 (NCI-H522): > 100 µM (inactive)
GI50 (OVCAR-3): 67 µM (inactive)
GI50 (SF-295): 97.5 µM (inactive)
GI50 (SK-MEL-28): > 100 µM (inactive)
GI50 (SK-MEL-2): > 100 µM (inactive)
GI50 (SN12C): 37.9 µM (inactive)
GI50 (T47D): > 100 µM (inactive)
GI50 (TK-10): 42.1 µM (inactive)
GI50 (UACC-257): > 100 µM (inactive)
GI50 (UO-31): > 100 µM (inactive)

Cn1c2cn[nH]c(=O)c2c2ccc3ccccc3c21
GI50 (A549): 27.7 µM (inactive)
GI50 (ACHN): 16.9 µM (inactive)
GI50 (CAKI-1): 42.4 µM (inactive)
GI50 (HCT-15): 23.9 µM
GI50 (MDA-MB-231): 15.4 µM (inactive)
GI50 (MOLT-4): 27.2 µM (inactive)
GI50 (NCI-H226): 36.1 µM (inactive)
GI50 (NCI-H522): 16.9 µM (inactive)
GI50 (OVCAR-3): > 100 µM (inactive)
GI50 (SF-295): 18.9 µM (inactive)
GI50 (SK-MEL-2): 18.2 µM (inactive)
GI50 (SN12C): 44.6 µM (inactive)
GI50 (T47D): > 100 µM (inactive)
GI50 (TK-10): 49.8 µM (inactive)
GI50 (UACC-257): > 100 µM (inactive)
GI50 (UACC-62): 22.4 µM (inactive)
GI50 (UO-31): 16.1 µM (inactive)

CCNC(=O)Nc1cccc(C)n1
GI50 (A549): > 100 µM (inactive)
GI50 (ACHN): > 100 µM (inactive)
GI50 (CAKI-1): > 100 µM (inactive)
GI50 (HCC 2998): > 100 µM (inactive)
GI50 (MDA-MB-231): > 100 µM (inactive)
GI50 (MOLT-4): > 100 µM (inactive)
GI50 (NCI-H226): > 100 µM (inactive)
GI50 (NCI-H522): > 100 µM (inactive)
GI50 (OVCAR-3): > 100 µM (inactive)
GI50 (SF-295): > 100 µM (inactive)
GI50 (SK-MEL-28): > 100 µM (inactive)
GI50 (SN12C): > 100 µM (inactive)
GI50 (T47D): > 100 µM (inactive)
GI50 (TK-10): > 100 µM (inactive)
GI50 (UACC-257): > 100 µM (inactive)
GI50 (UACC-62): 99.1 µM (inactive)
GI50 (UO-31): > 100 µM (inactive)

COC(=O)[C@H]1[C@H](C(=O)OC)[C@@H](C)c2c(ccc3c2[nH]c2ccccc23)[C@@H]1C
GI50 (A549): 31.1 µM (inactive)
GI50 (ACHN): 44.5 µM (inactive)
GI50 (CAKI-1): 68.4 µM (inactive)
GI50 (HCT-15): > 100 µM
GI50 (MDA-MB-231): 25.6 µM (inactive)
GI50 (MOLT-4): 0.3 µM (active)
GI50 (NCI-H226): > 100 µM (inactive)
GI50 (NCI-H522): 41.5 µM (inactive)
GI50 (OVCAR-3): 69.2 µM (inactive)
GI50 (SF-295): 18.6 µM (inactive)
GI50 (SK-MEL-28): > 100 µM (inactive)
GI50 (SK-MEL-2): 34.1 µM (inactive)
GI50 (SN12C): 13.2 µM (inactive)
GI50 (T47D): 13 µM (inactive)
GI50 (TK-10): 26.4 µM (inactive)
GI50 (UACC-257): 19.4 µM (inactive)
GI50 (UACC-62): > 100 µM (inactive)
GI50 (UO-31): > 100 µM (inactive)
